Earlier results as cited in patent US20130035389A1, “METHODS FOR TREATING MYELODYSPLASTIC SYNDROME WITH EZATIOSTAT” (Telik, Inc., priority 2011, published 2013).

Columns and labels:
leukemia cells = conditions: in vitro
[1] = system: hematopoietic progenitor cells; conditions: in vitro
GST P1-1 = GST P1-1 (Homo sapiens, UniProt P09211); conditions: leads to de-repression of jun kinase and activation of c-Jun
myelodysplastic syndrome = conditions: low risk and intermediate-1 risk MDS patients, oral, phase II study

Sequence of GST P1-1 (P09211 2-210 limits assumed): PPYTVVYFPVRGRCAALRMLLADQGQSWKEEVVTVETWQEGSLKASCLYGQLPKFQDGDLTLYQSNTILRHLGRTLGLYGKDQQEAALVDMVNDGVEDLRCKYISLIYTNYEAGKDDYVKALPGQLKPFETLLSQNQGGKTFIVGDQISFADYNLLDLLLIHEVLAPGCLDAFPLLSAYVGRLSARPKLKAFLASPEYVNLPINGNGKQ

Row | inhibition of GST P1-1 (GST P1-1) | Compound | apoptosis in leukemia cells (leukemia cells) | effect on growth and differentiation of hematopoietic progenitor cells [1] | clinical response (myelodysplastic syndrome)
1 | inhibits GST P1-1 | CCOC(=O)[C@@H](N)CCC(=O)N[C@@H](CSCc1ccccc1)C(=O)N[C@@H](C(=O)OCC)c1ccccc1 [Ezatiostat, ethyl (2S)-2-amino-5-[[(2R)-3-benzylsulfanyl-1-[[(1R)-2-ethoxy-2-oxo-1-phenylethyl]amino]-1-oxopropan-2-yl]amino]-5-oxopentanoate] | induce apoptosis in leukemia cells | stimulate growth and differentiation of hematopoietic progenitor cells | 
2 |  | CCOC(=O)[C@@H](N)CCC(=O)N[C@@H](CSCc1ccccc1)C(=O)N[C@@H](C(=O)OCC)c1ccccc1.Cl [ezatiostat hydrochloride] |  |  | multilineage responses
